Measured values taken from patent publication US5767298A, “Aminophospholipid compositions and uses thereof” (Indiana University Foundation, priority 1996, dated 1998).
Blank lines part the entries; values can stand above or below the molecule they belong to.

Tests used:
[1] = pH-dependent cleavage of caged aminophospholipids (MLVs, 1 h, 37° C., phosphate analysis of TLC-separated lipids); format: physicochemical; conditions: for cleavage at pH 3: after extended incubation at pH 3; for significant cleavage at physiologically desirable pH: pH 5.5-8, 37° C.; for pH of half-maximal cleavage: 1 h at 37° C.; for cleavage at any pH: pH 3-8, 1 h, 37° C.
Experimental: Derivatized aminophospholipids (C-DOPS (open circles), C-DOPE (filled circles), M-DOPE (open squares), D-DOPE (filled squares), T-DOPE (open triangles), and P-DOPE (filled triangles), 0.5 mM each) were suspended in citrate (pH 3, 4.5, and 6) or Hepes (pH 7 and 8) buffer and incubated for 1 h at 37° C.
pH-Dependent cleavage measurements. A chloroform solution of the "caged" aminophospholipid (0.1 μmol) being tested was dried under nitrogen and the lipid was resuspended in buffers (200 μL) of varying pH; pH 3 (50 mM citrate), pH 4.5 (50 mM citrate), pH 6 (50 mM citrate), pH 7 (50 mM Hepes), and pH 8 (50 mM Hepes), adjusted to physiological ionic strength (290-310 mOsM) with NaCl. Solutions were vortexed briefly to make multilamellar vesicles (MLVs) and placed in a shaking water bath for 1 h at 37° C. The reaction was quenched after 1 h with a Hepes buffer (0.5M, pH 8.0). The lipid was extracted and the aqueous phase washed twice with chloroform. The derivative was separated from DOPE or DOPS by normal phase silica TLC eluted with CHCl3:CH3OH:NH4OH:H2O (65:25:2.5:2.5). The fraction cleaved was determined by phosphate analysis of the corresponding iodine stained spots. A background measurement, not incubated at 37° C. for 1 h, but subjected to the same extraction and TLC procedures, was performed to correct for hydrolysis that occurred during workup. All measurements were completed in triplicate.
The pH dependence of cleavage of the DOPS and DOPE derivatives was determined by incubating lipid dispersions (MLVs) in buffers of varying pH for 1 h at 37° C. Hydrolysis was measured by phosphate analysis of TLC-separated products.

human erythrocytes [2] = assay: Erythrocyte shape change (morphological index): incorporation, uncaging and transport of lipid; format: cell-based
Experimental: (§1) A. Timecourse of erythrocyte shape change (morphological index) induced in washed human erythrocytes by C-DOPS liposomes (200 μM) incubated in HBS. At 45 min (arrow), one set of cells was centrifuged, resuspended in citrate buffer (100 mM, pH 5.5) and re-incubated at 37° C. (open circles). Aliquots were fixed with glutaraldehyde and analyzed by light microscopy. B. Low pH-induced cleavage of C-DOP^3 HS in human erythrocytes. Washed human red cells were treated with C-DOP^3 HS (55 nCi) for 45 min at 37° C. in HBS. After centrifugation, the cells were resuspended in citrate buffer (pH 5.5) and reincubated at 37° C. At the indicated timepoints, lipids were extracted from aliquots of cells, C-DOP^3 HS and DOP^3 HS were separated by thin layer chromatography, and radiolabeled lipids were quantitated by scintillation counting.
Washed human erythrocytes were incubated with sonicated suspensions of DLPS (200 μM, open circles, filled circles) or DLPC (200 μM, open squares) in citrate buffer pH 5.5 (open symbols) or in HBS (filled symbols) at 37° C. Aliquots were fixed with glutaraldehyde and analyzed by light microscopy.
(§2) Timecourse of erythrocyte shape change (MI) induced by suspensions of C-DLPS (200 μM, open circles, open triangles) and DLPC (200 μM, open squares) in HBS. After 15 min (arrow), one sample of cells (open circles) was centrifuged, resuspended in citrate buffer (100 mM, pH 5.5) and re-incubated at 37° C. At 15 or 75 min, aliquots of each sample were removed and treated with DOPC vesicles (20 mM, 5% HCT) for 15 min at 37° C. (closed symbols). At the indicated times aliquots were fixed with glutaraldehyde and analyzed by light microscopy.
Cells. Human erythrocytes were obtained from healthy adult volunteers by venipuncture and collected into EDTA (3.3 mM final concentration). Erythrocytes were pelleted by centrifugation (5 min, 3000 g), washed three times in Hepes buffered saline (HBS, 118 mM NaCl, 50 mM Hepes, 5 mM KCl, 1 mM MgSO4, 5 mM glucose, pH 8.25), and stored on ice at 50% hematocrit (HCT).
Phosphatidylserine transport assay. Previously washed erythrocytes were pelleted by centrifugation (5 min, 3000 g) and incubated at 50% HCT with sonicated DLPS, DLPC, C-DLPS, or C-DOPS vesicles (200 μM) in HBS according to the method of Daleke and Huestis (1985). At prescribed time points, the cells were fixed by adding 5 μL aliquots to 50 μL of glutaraldehyde (0.5%). Aliquots of fixed cells were examined by light microscopy for changes in cell morphology. Echinocytes were assigned scores of +1 to +5 based on the degree of […], discocytes were scored 0, and stomatocytes were given scores of -1 to -4 based on their degree of […] (Daleke & Huestis, 1989). Echinocytic shapes are indicative of cells with excess lipid in the outer monolayer, while stomatocytic shapes are indicative of cells with excess inner monolayer lipid (Sheetz & Singer, 1974). Thus, cell morphology can be used to measure the movement of exogenously added lipids from the outer to the inner monolayer. The average score of a field of 100 cells is defined as the morphological index (MI).
Hydrolysis of C-DOPS in human erythrocytes. Washed red blood cells were incubated with sonicated C-DOPS vesicles (200 μM) in HBS at 50% HCT for 45 min at 37° C. After 45 min (C-DOPS), the cells were centrifuged (16,000 g, 5 min) and the supernatant was removed. The cells were washed once with a citrate buffer (50 mM, 300 mOsM, pH 5.25) and then incubated at 20% HCT for varying lengths of time in citrate buffer. […] The final pH of the red cell suspensions in HBS was 7.58±0.02 and those suspensions in citrate buffer was 5.72±0.03 pH units. The values were corrected for temperature (37° C.). At the specified time points, an aliquot of cells was fixed and examined by light microscopy.

[3] = for time constant tau1 (initial fast component) / time constant tau2 (slow component): biexponential fit; for half-time for cleavage: citrate buffer, pH 5.5
Experimental: The extent of cleavage was determined by phosphate analysis of thin layer chromatographic separations of extracted lipids. The solid lines are non-linear least squares fits of the data to a double exponential equation (f(x)=α1*exp(-x/.tau.1)+α2*exp(-x/.tau.2)).
C-DOPE (0.5 mM, column 1) and C-DOPS (0.5 mM, columns 2-5) were suspended in citrate buffer, pH 5.5 (columns 1 and 2) containing Triton X-100 (0.1%, column 3), NaCl (1M, column 4) or egg PC (2.5 mM, column 5) and incubated for 1 h at 37° C. The extent of cleavage was quantitated by phosphate determination of thin layer chromatographic separations of extracted lipids. Kinetic parameters were determined by non-linear least squares fits of the data to a double exponential equation (see FIG. 2): A. Exponential coefficients α1 (open bars) and α2 (filled bars) B. Time constants .tau.1 (open bars) and .tau.2 (filled bars).
Chloroform solutions of C-DOPS or C-DOPE (0.1 μmol) were dried under nitrogen and resuspended in 200 μL of citrate buffer (50 mM, pH 5.5). MLVs were prepared as described above and placed in a shaking water bath at 37° C. At prescribed time points, the reaction was quenched with 50 μL of Hepes buffer (1M, pH 8.5), the lipid was extracted, and the amount of cleavage was determined by phosphate analysis of TLC-separated lipids.
In one set of experiments, the ionic strength of the citrate incubation buffer (pH 5.5) was raised by including 1M NaCl and cleavage was measured as described above. In a second set of experiments, C-DOPS cleavage was measured in the presence of Triton X-100 (0.1%). In a third set of experiments, a five fold excess of DOPC was add to the lipid suspensions to dilute the surface charge. In a fourth set of experiments, ethanol (0.05-0.5%), DTT (5 mM), aniline (1.5 mM), p-nitroaniline (1.5 mM), and DOPE (2.5 mM) were added in separate experiments to the incubation buffers as scavengers of the anhydride. The lipid products were extracted and isolated by thin-layer chromatography as described previously. A single time point at 2.5 or 3 h was analyzed. All measurements were completed in triplicate and data were fit to a biexponential equation (f(x)=α1*exp(-x/.tau.1)+α2*exp(-x/.tau.2)) using the program MacCurveFit (Kevin Raner, Mt. Waverley, Australia).

[4] = pH 5.5
Experimental: In a fourth set of experiments, ethanol (0.05-0.5%), DTT (5 mM), aniline (1.5 mM), p-nitroaniline (1.5 mM), and DOPE (2.5 mM) were added in separate experiments to the incubation buffers as scavengers of the anhydride. The lipid products were extracted and isolated by thin-layer chromatography as described previously. A single time point at 2.5 or 3 h was analyzed. All measurements were completed in triplicate and data were fit to a biexponential equation (f(x)=α1*exp(-x/.tau.1)+α2*exp(-x/.tau.2)) using the program MacCurveFit (Kevin Raner, Mt. Waverley, Australia).
This hypothesis was tested by using nucleophilic scavengers to trap the released anhydride. Both water soluble (dithiothreitol, ethanol) and lipophilic (aniline, p-nitroaniline, and DOPE) scavengers were added to C-DOPS solutions and cleavage was measured at a timepoint when the slow rate of cleavage predominated (Table II).

[5] = test system: aminophospholipid transporter, or "flippase"; conditions: cited from earlier work; for inhibition of flippase: Seigneuret & Devaux, 1984, Daleke & Huestis, 1985, Connor & Schroit, 1987, Bitbol et al.
human erythrocytes [6] = assay: Back extraction of dilauroyl phospholipids from human erythrocytes with DOPC vesicles; format: cell-based
Experimental: as §2
Back extraction of dilauroyl phospholipids from human erythrocytes. Washed red blood cells were incubated with DLPS, DLPC, or C-DLPS (200 μM) in HBS at 50% HCT for 90 min at 37° C. After 15 min, an aliquot of the cells was removed and the short chain phospholipids in the outer monolayer were back extracted with sonicated DOPC vesicles (20 mM) in HBS at 5% HCT for 15 min at 37° C. A separate aliquot of C-DLPS-treated cells was removed at 15 min, centrifuged, resuspended in citrate buffer (pH 5.5), and reincubated at 37° C. After 60 min, an aliquot from the cells incubated at low pH was removed and the short chain phospholipids remaining in the outer monolayer were back extracted with DOPC. Two additional control experiments were performed: 1] DLPC (200 μM) was incorporated into cells as described above for 15 min and then back extracted with DOPC vesicles, and 2] cells without exogenously added lipid were incubated with DOPC vesicles under the conditions of the back extraction assay. In each of the forgoing experiments aliquots were removed at the prescribed time points and the morphological index was determined by light microscopy.

human erythrocytes [7] = assay: Cleavage of C-DOP^3 HS in intact human erythrocytes (TLC, scintillation counting); format: cell-based; conditions: citrate buffer pH 5.5, 37° C.
Experimental: as §1
Hydrolysis of C-DOPS in human erythrocytes. […]
Uncaging of the C-DOPS derivative was measured in human red blood cells in order to test the feasibility of using the compound as a probe of aminophospholipid transport in biological membranes. […] Cleavage of C-DOP^3 HS was measured directly in intact erythrocytes. […] Following exchange with citrate buffer (pH 5.5), the cells were incubated at 37° C. and hydrolysis was measured by analysis of extracted lipids separated by thin layer chromatography.

[8] = after incorporation in HBS (15 min)
[9] = 200 μM, citrate buffer (pH 5.5), 37° C.

cleavage at pH 3 [1]: 25%
significant cleavage at physiologically desirable pH [1]: did not occur
Molecule: CCCCCCCC/C=C\CCCCCCCC(=O)OCC(COP(=O)(O)OCCNC(=O)/C=C\C(=O)O)OC(=O)CCCCCCC/C=C\CCCCCCCC (stereo not drawn) [M-DOPE, N-maleyl-dioleoylphosphatidylethanolamine]

initial cleavage rate relative to C-DOPE ([3]; citrate buffer pH 5.5, 37° C.): 6 fold
time constant tau1 (initial fast component) ([3]; citrate buffer pH 5.5, 37° C.): 0.15 h
time constant tau2 (slow component) ([3]; citrate buffer pH 5.5, 37° C.): 4.8 h
half-time for cleavage [3]: 85 min
% cleavage - scavenger ([4]; citrate buffer, 2.5 h): 55.2%
pH of half-maximal cleavage [1]: 6.5 pH
Molecule: CCCCCCCC/C=C\CCCCCCCC(=O)OC[C@H](COP(=O)(O)OC[C@H](NC(=O)/C(C)=C\C(=O)O)C(=O)O)OC(=O)CCCCCCC/C=C\CCCCCCCC [C-DOPS, N-citraconyl-dioleoylphosphatidylserine]
time cells remain echinocytic (human erythrocytes [2]; HBS, 37° C., 200 μM): more than 1.5 h
cell shape after exchange of buffer to low pH (human erythrocytes [2]; Hepes buffer exchanged for citrate buffer (pH 5.5)): reverted to a more discoid shape
effect of scavengers on slower second rate ([4]; dithiothreitol, ethanol, aniline, p-nitroaniline, DOPE): None of these scavengers attenuated the slower second rate

Molecule: phosphatidylserine [PS]
affinity of flippase relative to PE ([5]; PS versus PE, Zachowski et al., 1986): approximately ten-fold

cleavage at any pH [1]: not cleaved to any appreciable extent
Molecule: CCCCCCCC/C=C\CCCCCCCC(=O)OC[C@H](COP(=O)(O)OCCNC(=O)/C(C)=C(/C)C(=O)O)OC(=O)CCCCCCC/C=C\CCCCCCCC [D-DOPE, N-dimethylmaleyl-dioleoylphosphatidylethanolamine]

cleavage at pH 3 [1]: 25%
significant cleavage at physiologically desirable pH [1]: did not occur
Molecule: CCCCCCCC/C=C\CCCCCCCC(=O)OCC(COP(=O)(O)OCCNC(=O)c1ccccc1C(=O)O)OC(=O)CCCCCCC/C=C\CCCCCCCC (stereo not drawn) [P-DOPE, N-phthalyl-dioleoylphosphatidylethanolamine]

Molecule: CCCCCCCCCCCC(=O)OC[C@H](COP(=O)(O)OC[C@H](NC(=O)C(C)=CC(=O)O)C(=O)O)OC(=O)CCCCCCCCCCC [C-DLPS, N-citraconyl-dilauroylphosphatidylserine]
cell shape after back extraction with DOPC vesicles (human erythrocytes [6]; 15 min in HBS, then low pH for additional 60 min): reverted to stomatocytes
transbilayer location of lipid (human erythrocytes [6]; HBS): remains in the outer monolayer
cell shape after back extraction with DOPC vesicles (human erythrocytes [6]; [8]): reverted to discocytes
transbilayer location of lipid (portion) (human erythrocytes [6]; citrate buffer (low pH)): accumulates in the inner monolayer

Molecule: [Ca+2] [calcium]
inhibition of flippase [5]: inhibited

Molecule: [O]=[V]([O-])([O-])[O-] [vanadate]
inhibition of flippase [5]: inhibited

Molecule: citraconyl-dioleoylphosphatidyl-[3-^3 H]serine [C-DOP^3 HS]
cleavage in erythrocytes compared with model membranes (human erythrocytes [7]): followed a similar timecourse and extent in erythrocytes as in model membranes

Molecule: N-3,4,5,6-tetrahydrophthalyl-phosphatidylethanolamine [T-DOPE]
cleavage at any pH [1]: not cleaved to any appreciable extent

Molecule: CCCCCCCCCCCC(=O)OCC(COP(=O)([O-])OCC[N+](C)(C)C)OC(=O)CCCCCCCCCCC (stereo not drawn) [DLPC, dilauroylphosphatidylcholine]
cell shape after back extraction with DOPC vesicles (human erythrocytes [6]; [8]): identical results
time echinocytic shape is retained (human erythrocytes [2]; [9]): more than 1.5 h
time to become echinocytic (human erythrocytes [2]; [9]): ≤ 2 min
shape changes at higher pH compared with pH 5.5 (human erythrocytes [2]; higher pH, data not shown): similar

Molecule: CCCCCCCCCCCC(=O)OCC(COP(=O)(O)OCC(N)C(=O)O)OC(=O)CCCCCCCCCCC (stereo not drawn) [DLPS, dilauroylphosphatidylserine]
erythrocyte shape change (human erythrocytes [2]; 200 μM, HBS, 37° C.): became echinocytic initially but rapidly reverted to stomatocytes
erythrocyte shape change (human erythrocytes [2]; [9]): became echinocytic initially but rapidly reverted to stomatocytes

time constant tau1 (initial fast component) ([3]; citrate buffer pH 5.5, 37° C.): 0.9 h
time constant tau2 (slow component) ([3]; citrate buffer pH 5.5, 37° C.): 7 h
half-time for cleavage [3]: 110 min
pH of half-maximal cleavage [1]: 5.5 pH
Molecule: CCCCCCCC/C=C\CCCCCCCC(=O)OC[C@H](COP(=O)(O)OCCNC(=O)/C(C)=C\C(=O)O)OC(=O)CCCCCCC/C=C\CCCCCCCC [C-DOPE, N-citraconyl-dioleoylphosphatidylethanolamine]
